Measurements as given in PMC8213057, “Targeting ALK2: An Open Science Approach to Developing Therapeutics for the Treatment of Diffuse Intrinsic Pontine Glioma” (Journal of Medicinal Chemistry, 2020).

Columns and labels:
p70S6K/RPS6KB1 = p70S6K/RPS6KB1 (Homo sapiens, UniProt P23443); conditions: 1 μM; Run 1, Run 2
EPHA4 = EPHA4 (Homo sapiens, UniProt P54764); conditions: 1 μM; Run 1, Run 2
WEE1 = WEE1 (Homo sapiens, UniProt P30291); assay: biochemical; conditions: read-out: % enzyme activity, 1 μM; Run 1, Run 2
PDGFRa = PDGFRa (Homo sapiens, UniProt P16234); conditions: 1 μM; Run 1, Run 2
IRR/INSRR = IRR/INSRR (Homo sapiens, UniProt P14616); assay: biochemical; conditions: read-out: % enzyme activity, 1 μM; Run 1, Run 2
MEKK6 = biological target: T1, MEKK6 (Homo sapiens, UniProt O95382); conditions: 1 μM; Run 1, Run 2
T1 sequence (O95382 1-1288): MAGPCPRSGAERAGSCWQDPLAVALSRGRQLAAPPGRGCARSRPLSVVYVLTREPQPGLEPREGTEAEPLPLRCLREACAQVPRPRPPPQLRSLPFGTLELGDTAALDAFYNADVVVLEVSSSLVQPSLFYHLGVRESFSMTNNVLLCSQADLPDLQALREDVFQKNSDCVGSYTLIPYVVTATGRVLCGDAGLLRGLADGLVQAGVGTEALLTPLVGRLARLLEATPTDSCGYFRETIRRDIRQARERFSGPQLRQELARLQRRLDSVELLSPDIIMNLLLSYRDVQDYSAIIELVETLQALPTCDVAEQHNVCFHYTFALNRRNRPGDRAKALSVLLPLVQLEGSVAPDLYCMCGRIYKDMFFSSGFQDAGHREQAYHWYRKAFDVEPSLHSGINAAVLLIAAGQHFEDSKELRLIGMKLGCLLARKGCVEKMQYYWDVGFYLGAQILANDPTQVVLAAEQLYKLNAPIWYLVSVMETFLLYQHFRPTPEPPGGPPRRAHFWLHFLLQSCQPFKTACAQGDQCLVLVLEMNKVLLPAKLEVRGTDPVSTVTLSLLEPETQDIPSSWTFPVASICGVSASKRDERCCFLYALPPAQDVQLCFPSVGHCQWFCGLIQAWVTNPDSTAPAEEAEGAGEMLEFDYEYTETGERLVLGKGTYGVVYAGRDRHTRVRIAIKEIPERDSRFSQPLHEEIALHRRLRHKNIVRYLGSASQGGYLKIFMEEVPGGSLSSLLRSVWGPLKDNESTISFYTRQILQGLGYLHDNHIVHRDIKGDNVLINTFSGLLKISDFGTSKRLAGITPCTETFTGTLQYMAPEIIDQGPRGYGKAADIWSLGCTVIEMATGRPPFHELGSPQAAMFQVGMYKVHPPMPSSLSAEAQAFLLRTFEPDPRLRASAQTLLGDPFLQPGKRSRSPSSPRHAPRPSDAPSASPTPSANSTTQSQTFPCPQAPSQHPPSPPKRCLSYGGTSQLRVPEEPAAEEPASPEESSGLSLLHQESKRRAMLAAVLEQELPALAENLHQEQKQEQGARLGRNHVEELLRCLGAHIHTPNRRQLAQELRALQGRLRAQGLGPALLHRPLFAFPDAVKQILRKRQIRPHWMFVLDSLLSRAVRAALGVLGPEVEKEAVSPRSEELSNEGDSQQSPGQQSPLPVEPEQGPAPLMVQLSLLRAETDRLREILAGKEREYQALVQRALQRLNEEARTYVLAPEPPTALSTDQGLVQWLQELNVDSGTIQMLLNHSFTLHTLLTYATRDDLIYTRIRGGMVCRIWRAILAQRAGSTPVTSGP

CDK9/cyclin T2 = CDK9/cyclin T2 (Homo sapiens, UniProt P50750); conditions: 1 μM; Run 1, Run 2
ERK5/MAPK7 = ERK5/MAPK7 (Homo sapiens, UniProt Q13164); conditions: 1 μM; Run 1, Run 2
SGK3/SGKL = biological target: T2, SGK3/SGKL (Homo sapiens, UniProt Q96BR1); conditions: 1 μM; Run 1, Run 2
T2 sequence (Q96BR1 1-496): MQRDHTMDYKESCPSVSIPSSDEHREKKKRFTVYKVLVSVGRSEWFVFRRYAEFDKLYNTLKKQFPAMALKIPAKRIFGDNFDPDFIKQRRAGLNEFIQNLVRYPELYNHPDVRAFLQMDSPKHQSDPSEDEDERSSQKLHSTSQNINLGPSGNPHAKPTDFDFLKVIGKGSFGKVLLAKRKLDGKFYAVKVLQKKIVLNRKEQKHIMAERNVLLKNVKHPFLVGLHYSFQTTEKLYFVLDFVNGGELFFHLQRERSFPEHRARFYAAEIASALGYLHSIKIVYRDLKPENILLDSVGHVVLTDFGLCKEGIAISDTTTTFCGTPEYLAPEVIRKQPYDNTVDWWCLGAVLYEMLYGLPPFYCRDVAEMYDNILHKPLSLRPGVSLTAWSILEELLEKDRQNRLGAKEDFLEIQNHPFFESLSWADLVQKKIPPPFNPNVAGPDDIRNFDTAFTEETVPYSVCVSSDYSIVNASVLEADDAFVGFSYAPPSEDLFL

PKCb2 = PKCb2 (Homo sapiens, UniProt P05771); assay: biochemical; conditions: read-out: % enzyme activity, 1 μM; Run 1, Run 2
CK1epsilon = CK1epsilon (Homo sapiens, UniProt P49674); assay: biochemical; conditions: read-out: % enzyme activity, 1 μM; Run 1, Run 2
PKCiota = biological target: T3, PKCiota (Homo sapiens, UniProt P41743); assay: biochemical; conditions: read-out: % enzyme activity, 1 μM; Run 1, Run 2
T3 sequence (P41743 1-596): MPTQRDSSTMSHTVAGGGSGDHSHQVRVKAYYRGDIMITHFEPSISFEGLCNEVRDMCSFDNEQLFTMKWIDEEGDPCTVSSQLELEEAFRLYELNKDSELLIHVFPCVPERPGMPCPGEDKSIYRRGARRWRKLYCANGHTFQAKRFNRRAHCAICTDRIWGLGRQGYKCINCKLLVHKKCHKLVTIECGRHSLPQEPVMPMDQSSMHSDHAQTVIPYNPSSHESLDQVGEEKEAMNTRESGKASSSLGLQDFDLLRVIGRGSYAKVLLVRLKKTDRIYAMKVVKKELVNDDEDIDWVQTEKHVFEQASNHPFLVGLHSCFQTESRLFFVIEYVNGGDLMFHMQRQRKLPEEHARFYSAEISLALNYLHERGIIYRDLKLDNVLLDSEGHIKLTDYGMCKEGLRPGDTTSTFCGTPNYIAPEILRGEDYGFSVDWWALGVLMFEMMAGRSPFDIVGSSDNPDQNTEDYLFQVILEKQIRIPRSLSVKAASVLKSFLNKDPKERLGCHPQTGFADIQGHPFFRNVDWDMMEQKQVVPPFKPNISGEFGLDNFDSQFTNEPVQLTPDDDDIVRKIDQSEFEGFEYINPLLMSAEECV

Sequence of WEE1 (P30291 whole entry, species assumed): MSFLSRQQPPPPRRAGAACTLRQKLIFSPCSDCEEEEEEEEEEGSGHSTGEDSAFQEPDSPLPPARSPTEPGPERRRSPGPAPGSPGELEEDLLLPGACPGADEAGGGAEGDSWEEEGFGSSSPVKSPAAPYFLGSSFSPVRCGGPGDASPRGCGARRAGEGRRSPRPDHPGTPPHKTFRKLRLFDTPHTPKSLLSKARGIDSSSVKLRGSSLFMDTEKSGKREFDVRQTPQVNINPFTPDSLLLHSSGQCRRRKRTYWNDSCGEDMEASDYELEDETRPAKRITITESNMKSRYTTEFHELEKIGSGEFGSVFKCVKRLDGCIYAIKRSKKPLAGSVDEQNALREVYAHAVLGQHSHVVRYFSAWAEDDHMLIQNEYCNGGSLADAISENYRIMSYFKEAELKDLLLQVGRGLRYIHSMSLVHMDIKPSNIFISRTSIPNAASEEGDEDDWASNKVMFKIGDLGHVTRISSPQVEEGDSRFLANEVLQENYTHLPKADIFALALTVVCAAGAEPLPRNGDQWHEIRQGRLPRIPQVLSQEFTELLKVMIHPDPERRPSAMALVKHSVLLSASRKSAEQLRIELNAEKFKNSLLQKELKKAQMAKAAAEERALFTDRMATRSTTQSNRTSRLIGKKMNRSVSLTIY
Sequence of PKCb2 (P05771 1-673 isoform P05771-2): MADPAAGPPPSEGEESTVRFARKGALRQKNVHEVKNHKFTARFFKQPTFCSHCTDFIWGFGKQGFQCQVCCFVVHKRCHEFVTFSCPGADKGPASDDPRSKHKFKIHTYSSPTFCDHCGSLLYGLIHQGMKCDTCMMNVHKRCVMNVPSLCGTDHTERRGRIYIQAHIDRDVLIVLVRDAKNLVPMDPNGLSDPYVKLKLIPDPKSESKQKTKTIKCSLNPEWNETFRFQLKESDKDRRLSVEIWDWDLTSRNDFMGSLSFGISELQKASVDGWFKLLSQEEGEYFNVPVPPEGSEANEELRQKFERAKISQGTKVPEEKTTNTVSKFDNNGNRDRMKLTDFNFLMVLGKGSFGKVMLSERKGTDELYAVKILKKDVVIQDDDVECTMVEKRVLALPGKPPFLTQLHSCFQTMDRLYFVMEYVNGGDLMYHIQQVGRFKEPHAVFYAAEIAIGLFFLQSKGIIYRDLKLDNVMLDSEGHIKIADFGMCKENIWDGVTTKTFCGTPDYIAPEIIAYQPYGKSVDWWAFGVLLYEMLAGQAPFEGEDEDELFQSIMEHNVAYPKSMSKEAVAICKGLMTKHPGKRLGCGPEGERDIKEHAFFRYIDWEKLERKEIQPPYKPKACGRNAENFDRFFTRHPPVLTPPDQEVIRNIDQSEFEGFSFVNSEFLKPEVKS
Sequence of CK1epsilon (P49674 whole entry): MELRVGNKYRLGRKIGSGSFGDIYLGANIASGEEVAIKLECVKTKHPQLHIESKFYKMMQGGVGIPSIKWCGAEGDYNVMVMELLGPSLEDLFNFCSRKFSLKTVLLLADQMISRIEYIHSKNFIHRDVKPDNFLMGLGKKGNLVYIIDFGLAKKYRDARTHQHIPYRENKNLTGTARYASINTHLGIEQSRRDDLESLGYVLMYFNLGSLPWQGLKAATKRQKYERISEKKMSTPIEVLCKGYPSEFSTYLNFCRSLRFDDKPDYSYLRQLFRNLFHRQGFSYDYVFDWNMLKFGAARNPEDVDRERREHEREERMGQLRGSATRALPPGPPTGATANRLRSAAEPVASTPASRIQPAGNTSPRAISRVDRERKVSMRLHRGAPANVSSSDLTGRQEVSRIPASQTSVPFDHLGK
Sequence of PDGFRa (P16234 24-1089): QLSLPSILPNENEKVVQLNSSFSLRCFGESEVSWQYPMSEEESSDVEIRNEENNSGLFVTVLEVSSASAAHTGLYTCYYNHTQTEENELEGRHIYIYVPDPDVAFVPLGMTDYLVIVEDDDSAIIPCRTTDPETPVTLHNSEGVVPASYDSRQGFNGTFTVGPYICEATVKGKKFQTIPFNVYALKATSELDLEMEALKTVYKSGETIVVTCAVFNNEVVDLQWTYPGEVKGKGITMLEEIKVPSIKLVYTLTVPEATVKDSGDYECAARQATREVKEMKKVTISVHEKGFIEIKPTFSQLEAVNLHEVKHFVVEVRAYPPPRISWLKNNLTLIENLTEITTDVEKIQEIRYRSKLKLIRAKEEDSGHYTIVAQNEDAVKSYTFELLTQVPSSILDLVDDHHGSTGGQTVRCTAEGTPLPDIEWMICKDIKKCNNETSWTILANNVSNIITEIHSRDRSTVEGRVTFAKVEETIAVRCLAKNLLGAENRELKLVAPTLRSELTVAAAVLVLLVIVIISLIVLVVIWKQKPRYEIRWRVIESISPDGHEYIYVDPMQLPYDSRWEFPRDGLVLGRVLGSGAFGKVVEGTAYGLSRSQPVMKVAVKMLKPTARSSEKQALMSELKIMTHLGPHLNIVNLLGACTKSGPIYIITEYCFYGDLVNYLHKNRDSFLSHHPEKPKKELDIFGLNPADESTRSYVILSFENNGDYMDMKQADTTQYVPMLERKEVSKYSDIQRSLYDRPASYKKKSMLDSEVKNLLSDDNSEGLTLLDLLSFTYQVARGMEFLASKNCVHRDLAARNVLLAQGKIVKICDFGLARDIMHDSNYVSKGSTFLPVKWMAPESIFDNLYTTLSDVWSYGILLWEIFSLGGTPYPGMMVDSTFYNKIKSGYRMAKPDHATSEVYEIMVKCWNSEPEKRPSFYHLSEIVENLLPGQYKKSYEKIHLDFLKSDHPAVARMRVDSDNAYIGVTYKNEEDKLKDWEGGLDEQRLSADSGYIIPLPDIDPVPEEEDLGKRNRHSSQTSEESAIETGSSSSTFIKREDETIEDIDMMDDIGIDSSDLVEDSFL
Sequence of EPHA4 (P54764 20-986): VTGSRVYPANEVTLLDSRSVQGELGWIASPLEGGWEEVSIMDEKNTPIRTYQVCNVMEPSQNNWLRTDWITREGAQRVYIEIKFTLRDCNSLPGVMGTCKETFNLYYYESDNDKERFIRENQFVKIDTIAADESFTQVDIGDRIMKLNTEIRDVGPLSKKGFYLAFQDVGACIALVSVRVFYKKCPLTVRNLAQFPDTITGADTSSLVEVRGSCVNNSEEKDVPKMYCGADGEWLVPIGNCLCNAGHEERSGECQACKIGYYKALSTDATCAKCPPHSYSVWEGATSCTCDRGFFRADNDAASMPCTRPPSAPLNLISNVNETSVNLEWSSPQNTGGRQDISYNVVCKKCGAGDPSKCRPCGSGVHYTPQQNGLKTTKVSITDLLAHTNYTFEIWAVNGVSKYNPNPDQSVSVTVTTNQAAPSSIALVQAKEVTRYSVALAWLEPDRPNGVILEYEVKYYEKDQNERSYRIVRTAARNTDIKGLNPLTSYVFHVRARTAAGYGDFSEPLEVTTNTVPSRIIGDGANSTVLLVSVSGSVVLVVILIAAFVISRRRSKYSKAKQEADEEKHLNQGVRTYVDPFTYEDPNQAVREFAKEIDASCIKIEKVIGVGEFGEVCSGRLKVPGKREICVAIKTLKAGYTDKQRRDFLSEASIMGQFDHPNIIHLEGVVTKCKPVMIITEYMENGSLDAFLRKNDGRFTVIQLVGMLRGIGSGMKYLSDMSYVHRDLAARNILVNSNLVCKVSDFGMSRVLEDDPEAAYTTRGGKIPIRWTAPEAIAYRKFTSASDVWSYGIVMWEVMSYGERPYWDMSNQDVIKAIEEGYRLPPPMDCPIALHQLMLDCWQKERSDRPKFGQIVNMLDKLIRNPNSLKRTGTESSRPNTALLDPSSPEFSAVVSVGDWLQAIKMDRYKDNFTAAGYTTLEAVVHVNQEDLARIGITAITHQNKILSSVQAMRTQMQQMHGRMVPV
Sequence of p70S6K/RPS6KB1 (P23443 whole entry): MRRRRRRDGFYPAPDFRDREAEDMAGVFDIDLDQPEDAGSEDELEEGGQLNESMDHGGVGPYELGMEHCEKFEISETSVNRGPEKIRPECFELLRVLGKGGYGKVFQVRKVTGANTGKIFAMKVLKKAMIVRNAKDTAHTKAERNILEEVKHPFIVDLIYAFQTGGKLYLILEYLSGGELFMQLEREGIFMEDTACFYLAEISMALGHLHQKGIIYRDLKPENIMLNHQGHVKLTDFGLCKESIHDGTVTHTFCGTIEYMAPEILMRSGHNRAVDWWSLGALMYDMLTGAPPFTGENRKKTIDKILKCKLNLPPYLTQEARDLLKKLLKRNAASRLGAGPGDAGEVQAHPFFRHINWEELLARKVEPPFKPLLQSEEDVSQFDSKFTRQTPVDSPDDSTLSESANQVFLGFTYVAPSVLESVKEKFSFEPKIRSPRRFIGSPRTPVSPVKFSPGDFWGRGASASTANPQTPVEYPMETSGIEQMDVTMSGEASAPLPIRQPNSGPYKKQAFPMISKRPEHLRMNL

Row | Compound | % enzyme activity (p70S6K/RPS6KB1) | % enzyme activity (EPHA4) | remaining activity at 1 µM (WEE1) | % enzyme activity (PDGFRa) | remaining activity at 1 µM (IRR/INSRR) | % enzyme activity (MEKK6) | % enzyme activity (CDK9/cyclin T2) | % enzyme activity (ERK5/MAPK7) | % enzyme activity (SGK3/SGKL) | remaining activity at 1 µM (PKCb2) | remaining activity at 1 µM (CK1epsilon) | remaining activity at 1 µM (PKCiota)
1 | COc1cc(-c2cncc(-c3ccc(N4CCN(C)CC4)cc3)c2C)cc(F)c1C(N)=O [Compound 26a, 2-Fluoro-6-methoxy-4-(4-methyl-5-(4-(4-methylpiperazin-1-yl)phenyl)pyridin-3-yl)benzamide] | 96.69% | 91.81% | 105% | 81.22% | 108% | 96.75% | 99.00% | 92.77% | 99.35% | 107% | 93.8% | 107%
2 | COc1cc(-c2cncc(-c3ccc(N4C[C@@H](C)N(C)[C@@H](C)C4)cc3)c2C)cc(F)c1C(N)=O [Compound 26c, 2-Fluoro-6-methoxy-4-(4-methyl-5-(4-((3R,5S)-3,4,5-trimethylpiperazin-1-yl)phenyl)pyridin-3-yl)benzamide] | 99.76% | 98.76% | 105% | 81.08% | 121% | 95.16% | 100.35% | 98.01% | 93.33% | 99.1% | 94.7% | 99.1%
